Measured values published in the supplement of paper PMC10733146.

How the values were obtained:
Test in all cases: viability relative to DMSO control (fraction); higher = less drug effect (more viable cells)
[1] = tested on: primary AML patient cells (S012); conditions: 48 h
How it was run: (§1)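 In 384-well plates with compounds pre-plated at five concentrations (one well per concentration), primary mononuclear tumour cells were plated at 4 × 10^4 cells per well. The cells came from blood or bone marrow by Ficoll isolation or from processed lymph node, and were used fresh or cryopreserved. Culture ran for 48 h at 37 °C and 5% CO2 in RPMI-1640 containing penicillin/streptomycin, L-glutamine and human serum. Viability was read as CellTiter-Glo luminescence, normalised to the median of 16 inner DMSO wells.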

[2] = tested on: primary AML patient cells (S037); conditions: 48 h
How it was run: as §1

[3] = tested on: primary AML patient cells (S019); conditions: 48 h
How it was run: as §1

[4] = tested on: primary AML patient cells (S006); conditions: 48 h
How it was run: as §1

[5] = tested on: primary AML patient cells (S081); conditions: 48 h
How it was run: as §1

[6] = tested on: primary DLBCL patient cells (S076); conditions: 48 h
How it was run: as §1

[7] = tested on: primary AML patient cells (S007); conditions: 2 µM; 48 h
How it was run: as §1

[8] = tested on: primary AML patient cells (S089); conditions: 48 h
How it was run: as §1

[9] = tested on: primary AML patient cells (S011); conditions: 48 h
How it was run: as §1

[10] = tested on: primary AML patient cells (S017); conditions: 48 h
How it was run: as §1

[11] = tested on: primary AML patient cells (S021); conditions: 48 h
How it was run: as §1

[12] = tested on: primary AML patient cells (S002); conditions: 48 h
How it was run: as §1

[13] = tested on: primary DLBCL patient cells (S049); conditions: 48 h
How it was run: as §1

[14] = tested on: primary AML patient cells (S085); conditions: 48 h
How it was run: as §1

[15] = tested on: primary CLL patient cells (S043); conditions: 48 h
How it was run: as §1

[16] = tested on: primary T-NHL patient cells (S058); conditions: 48 h
How it was run: as §1

[17] = tested on: primary AML patient cells (S025); conditions: 48 h
How it was run: as §1

[18] = tested on: primary AML patient cells (S091); conditions: 48 h
How it was run: as §1

CC(C)c1cc(-c2n[nH]c(=O)n2-c2ccc3c(ccn3C)c2)c(O)cc1O [Ganetespib]
viability ([1]; 0.0032 µM): 0.991 | viability ([1]; 0.016 µM): 0.964 | viability ([1]; 0.08 µM): 0.131 | viability ([1]; 0.4 µM): 0.126 | viability ([1]; 2 µM): 0.121 | viability ([2]; 0.0032 µM): 0.976 | viability ([2]; 0.016 µM): 0.988 | viability ([2]; 0.08 µM): 0.947 | viability ([2]; 0.4 µM): 0.979 | viability ([2]; 2 µM): 0.937 | viability ([3]; 0.0032 µM): 0.923 | viability ([3]; 0.016 µM): 0.682 | viability ([3]; 0.08 µM): 0.411 | viability ([3]; 0.4 µM): 0.465 | viability ([3]; 2 µM): 0.444 | viability ([4]; 0.0032 µM): 0.846 | viability ([4]; 0.016 µM): 0.154 | viability ([4]; 0.08 µM): 0.134 | viability ([4]; 0.4 µM): 0.198 | viability ([4]; 2 µM): 0.186 | viability ([5]; 0.0032 µM): 0.981 | viability ([5]; 0.016 µM): 0.674 | viability ([5]; 0.08 µM): 0.0862 | viability ([5]; 0.4 µM): 0.0773 | viability ([5]; 2 µM): 0.0742 | viability ([6]; 0.0032 µM): 1.12 | viability ([6]; 0.016 µM): 0.904 | viability ([6]; 0.08 µM): 0.467 | viability ([6]; 0.4 µM): 0.407 | viability ([6]; 2 µM): 0.396 | viability [7]: 0.0928 | viability ([8]; 0.0032 µM): 0.692 | viability ([8]; 0.016 µM): 0.371 | viability ([8]; 0.08 µM): 0.182 | viability ([8]; 0.4 µM): 0.254 | viability ([8]; 2 µM): 0.215 | viability ([9]; 0.0032 µM): 1.13 | viability ([9]; 0.016 µM): 0.778 | viability ([9]; 0.08 µM): 0.624 | viability ([9]; 0.4 µM): 0.684 | viability ([9]; 2 µM): 0.644 | viability ([10]; 0.0032 µM): 1.07 | viability ([10]; 0.016 µM): 0.996 | viability ([10]; 0.08 µM): 0.371 | viability ([10]; 0.4 µM): 0.326 | viability ([10]; 2 µM): 0.31 | viability ([11]; 0.0032 µM): 0.917 | viability ([11]; 0.016 µM): 0.742 | viability ([11]; 0.08 µM): 0.53 | viability ([11]; 0.4 µM): 0.637 | viability ([11]; 2 µM): 0.617 | viability ([12]; 0.0032 µM): 0.957 | viability ([12]; 0.016 µM): 0.414 | viability ([12]; 0.08 µM): 0.328 | viability ([12]; 0.4 µM): 0.326 | viability ([12]; 2 µM): 0.323 | viability ([13]; 0.0032 µM): 0.955 | viability ([13]; 0.016 µM): 0.989 | viability ([13]; 0.08 µM): 0.888 | viability ([13]; 0.4 µM): 0.54 | viability ([13]; 2 µM): 0.537 | viability ([14]; 0.0032 µM): 0.973 | viability ([14]; 0.016 µM): 0.648 | viability ([14]; 0.08 µM): 0.195 | viability ([14]; 0.4 µM): 0.251 | viability ([14]; 2 µM): 0.264 | viability ([15]; 0.0032 µM): 0.928 | viability ([15]; 0.016 µM): 0.917 | viability ([15]; 0.08 µM): 0.637 | viability ([15]; 0.4 µM): 0.535 | viability ([15]; 2 µM): 0.521 | viability ([16]; 0.0032 µM): 1.01 | viability ([16]; 0.016 µM): 0.978 | viability ([16]; 0.08 µM): 0.943 | viability ([16]; 0.4 µM): 1.14 | viability ([16]; 2 µM): 1.12 | viability ([17]; 0.0032 µM): 0.936 | viability ([17]; 0.016 µM): 0.579 | viability ([17]; 0.08 µM): 0.343 | viability ([17]; 0.4 µM): 0.334 | viability ([18]; 0.0032 µM): 0.926 | viability ([18]; 0.016 µM): 0.901 | viability ([18]; 0.08 µM): 0.364 | viability ([18]; 0.4 µM): 0.259 | viability ([18]; 2 µM): 0.26
